Laboratory results: patent US4602015A, “2-piperazinopyrimidine salt and pharmaceutical compositions containing it” (priority 1983, dated 1986)

Columns and labels:
[1] = system: rotational behaviour after unilateral lesion of the striatum; assay: rotational behaviour in lesioned mice, time course 60, 180 and 360 minutes; format: in vivo, Female Charles River CD1 mice; conditions: Table III, mouse, oral, dose corresponding to 0.15 mg/kg free base, ** p < 0.01, ns not significant
[2] = system: prochlorperazine-induced catalepsy; assay: antagonism of prochlorperazine-induced catalepsy (cork test, oral); format: in vivo, Wistar male rats; conditions: rat; for Prochlorperazine Catal. antag. ED50: 1 h before prochlorperazine 10 mg/kg s.c., interval in parentheses printed on next line: napsilate (5.0-6.4), base (12-45)
Method: The antidepressive activity of the compound of the invention has been evaluated in the test of antagonism of prochlorperazine-induced catalepsy (K. Biziere et al., Arzneimittel Forschung, 1982, 32 (II), 824-831). The 2-(1-piperazinyl)pyrimidine napsilate and the corresponding free base, as reference compound, were administered orally to groups of 10 Wistar male rats weighing 220-240 g; at the same time control animals were treated with saline. One hour later, prochlorperazine was administered subcutaneously at a dose of 10 mg/kg. Five hours after this administration, the number of cataleptic animals was assessed by the cork test. According to this test the animals were placed with their forepaws on a stand formed by three superposed corks (11 cm total height) and forced to maintain this position for 20 seconds at least. The performances of each group of animals were compared with those of the controls having received the vehicle and prochlorperazine only.

[3] = system: rotational behaviour after unilateral lesion of the striatum; assay: rotational behaviour in lesioned mice, time course 60, 180 and 360 minutes; format: in vivo, Female Charles River CD1 mice; conditions: for Variation % of turns after 60 minutes: Table III, mouse, oral, dose corresponding to 0.15 mg/kg free base, ** p < 0.01, ns not significant
From the text: (§1) The dopaminergic mechanism of the compound of the invention was studied in comparison with the corresponding free base and its hydrochloride by analysing the rotational behaviour in mice after unilateral lesion of the striatum (P. Protais et al., J. Pharmacol. 1976, 7, 251-255).
(§2) Female Charles River CD1 mice weighing 20-24 g were previously subjected to a unilateral lesion of the striatum by stereotaxic injection of 8 mcg/animal of 6-hydroxydopamine. A week later, the 2-(1-piperazinyl)-pyrimidine napsilate, the 2-(1-piperazinyl)pyrimidine hydrochloride and the free base were administered by oral route to groups of six mice at a dose corresponding to 0.15 mg/kg of free base. The number of turns was recorded, during 2 minutes, one hour after the administration of the three products. The turns ipsilateral to the lesion were plotted as positive values, the contralateral turns were plotted as negative values. The algebric sum of turns for each group of treated animals was compared to that of control animals treated with the vehicle (saline) only.
The dopaminergic action of the compound of the present invention has also been evaluated in the time in comparison with the corresponding free base and the hydrochloride thereof.

[4] = psychotropic activity (general statement); format: in vivo
[5] = system: rotational behaviour after unilateral lesion of the striatum; assay: rotational behaviour in mice after unilateral 6-hydroxydopamine lesion of the striatum; format: in vivo, Female Charles River CD1 mice; conditions: for Variation % of turns as compared to controls: Table II, mouse, oral, 1 h after administration, doses 0.15 (base), 0.18 (hydrochloride), 0.34 (napsilate) mg/kg = 0.15 mg/kg free base, ** p < 0.01, ns not significant
From the text: as §1, §2

[6] = H. W. Stewart et al., J. Org. Chem. 1953; cited from earlier work

Compound	Variation % of turns after 180 minutes [1] [%]	Variation % of turns after 360 minutes [1] [%]	Prochlorperazine Catal. antag. ED50 [2] [mcmol/kg]	oral activity relative to corresponding free base (times more active) ([2]; ratio versus free base)	Variation % of turns after 60 minutes [3] [%]	activity with time (in words) ([3]; comment on Table III)	potency versus reference products (in words) ([3]; comment on Table III, versus free base and hydrochloride)	psychotropic activity (in words) ([4]; dopaminergic mechanism, antipsychotic, antidepressive, tranquillizing-sedative)	activity versus free base and hydrochloride (in words) ([4]; in the absolute sense)	duration of activity (in words) ([4]; in vivo)	Variation % of turns as compared to controls [5] [%]	dopaminergic activity (in words) ([5]; comment on Table II)	negative variation of turns ([5]; comment on Table II, contralateral turns exceed ipsilateral turns)	effect on algebric sum of turns (in words) ([5]; comment on Table II)	analgesic or antifilarial activity (in words) [6]
c1cnc(N2CCNCC2)nc1 [2-(1-piperazinyl)pyrimidine napsilate, 2-(1-piperazinyl)pyrimidine 2-naphtalenesulfonate]	-126	-147	5.7	about 4 times	-117	increases significantly with the time	more potent than the reference products	very good psychotropic activity	much more active	long-lasting and increases with time	-117	dopaminergic activity higher than that of the free base	higher than 100%		
c1cnc(N2CCNCC2)nc1 [2-(1-piperazinyl)pyrimidine base, 2-(1-piperazinyl)pyrimidine]	-62	-60	24		-94	tends to decrease with the time					-94			significantly reduces the algebric sum of turns	none of which has shown analgesic or antifilarial activity
Cl.c1cnc(N2CCNCC2)nc1 [2-(1-piperazinyl)pyrimidine hydrochloride]	-28	-22			-29	inactive with the time too					-29	nearly inactive		no significant effect	
